Assay [1] concerns antibodies in sera from SARS patients (sera 1a, 1b, 2, 6, 37, 62, London, SARS-yellow, SARS-green). The format is binding, human. Details: Binding of serum 6 to linear peptides of protein X1 of SARS-CoV Urbani / Binding of serum 37 to linear peptides of protein X1 of SARS-CoV Urbani / Binding of serum 6 to looped/cyclic peptide (PEPSCAN-ELISA) / Binding of serum 37 to looped/cyclic peptide (PEPSCAN-ELISA) / Binding of serum 37 to looped/cyclic peptides of protein X1 of SARS-CoV Urbani / Binding of serum 6 to linear peptides of protein X2 / Binding of serum 37 to linear peptides of protein X2 / Binding of serum 37 to looped/cyclic peptides of protein X2 of SARS-CoV Urbani / Binding of serum 6 to linear peptides of protein M of SARS-CoV Urbani / Binding of serum 37 to linear peptides of protein M of SARS-CoV Urbani / Binding of serum 6 to looped/cyclic peptides of protein M of SARS-CoV Urbani / Binding of serum 37 to looped/cyclic peptides of protein M of SARS-CoV Urbani / Binding of serum 6 to linear peptides of protein X3 of SARS-CoV Urbani / Binding of serum 37 to linear peptides of protein X3 of SARS-CoV Urbani / Binding of serum 37 to looped/cyclic peptides of protein X3 of SARS-CoV Urbani / Binding of serum 6 to linear peptides of protein X4 of SARS-CoV Urbani / Binding of serum 37 to linear peptides of protein X4 of SARS-CoV Urbani / Binding of serum 37 to looped/cyclic peptides of protein X4 of SARS-CoV Urbani / Binding of serum 6 to linear peptides of protein X5 of SARS-CoV Urbani / Binding of serum 37 to linear peptides of protein X5 of SARS-CoV Urbani / Binding of serum 37 to looped/cyclic peptides of protein X5 of SARS-CoV Urbani / Binding of serum 6 to linear peptides of protein N of SARS-CoV Urbani / Binding of serum 37 to linear peptides of protein N of SARS-CoV Urbani / Binding of serum 6 to linear peptide (PEPSCAN-ELISA) / Binding of serum 1a to looped/cyclic peptides of protein N of SARS-CoV Urbani / Binding of serum 1b to looped/cyclic peptides of protein N of SARS-CoV Urbani / Binding of serum 2 to looped/cyclic peptides of protein N of SARS-CoV Urbani / Binding of serum 6 to looped/cyclic peptides of protein N of SARS-CoV Urbani / Binding of serum 37 to looped/cyclic peptides of protein N of SARS-CoV Urbani / Binding of serum 62 to looped/cyclic peptides of protein N of SARS-CoV Urbani / Binding of serum London to looped/cyclic peptides of protein N of SARS-CoV Urbani / Binding of serum SARS-green to looped/cyclic peptides of protein N of SARS-CoV Urbani: unit not given here.

The test system of assay [2] is control sera (pooled serum of ten healthy LUMC hospital workers; commercial negative donor pooled serum from the Dutch bloodbank). The format is binding, human. Details: Binding of Control serum LUMC to linear peptides / Binding of Control serum Blood-bank to linear peptides / Binding of Control serum LUMC to looped peptides / Binding of Control Serum Blood-Bank to Looped peptides / Binding of Control serum LUMC to linear peptides of the protein M of SARS-CoV Urbani / Binding of Control serum Blood-bank to linear peptides of the protein M of SARS-CoV Urbani / Binding of Control serum LUMC to looped peptides of the protein M of SARS-CoV Urbani / Binding of Control Serum Blood-Bank to Looped peptides of the protein M of SARS-CoV Urbani: unit not given here.

The subject of assay [3] is rabbit serum obtained by immunizing a rabbit with the SARS-CoV strain Frankfurt 1. The class given is binding. The arrangement: Binding of a rabbit serum to linear peptides / Binding of a rabbit serum to looped peptides / Rabbit serum linear peptides / Rabbit serum looped peptides / Binding of a rabbit serum to linear peptides of protein N of SARS-CoV Urbani (Rabbit serum linear peptides) / Binding of a rabbit serum to looped/cyclic peptides of protein N of SARS-CoV Urbani (Rabbit serum looped peptides): unit not given here.

For TIPLQASLPFGWLVI, in assay [1], the “Binding of serum 1a to linear peptides of protein X1 of SARS-CoV Urbani” value came to 0.8, the “Binding of serum 1a to looped/cyclic peptide (PEPSCAN-ELISA)” value is recorded as 0.6, the “Binding of serum 1b to linear peptides of protein X1 of SARS-CoV Urbani” value worked out at 0.5 and the “Binding of serum 1b to looped/cyclic peptide (PEPSCAN-ELISA)” value came out at 0.4. In addition, in assay [1], the “Binding of serum 2 to linear peptides of protein X1 of SARS-CoV Urbani” value is 0.6, the “Binding of serum 2 to looped/cyclic peptide (PEPSCAN-ELISA)” value was 0.5, the “Binding of serum 6 to linear peptides of protein X1 of SARS-CoV Urbani” value stood at 0.5 and the “Binding of serum 6 to looped/cyclic peptide (PEPSCAN-ELISA)” value was found to be 0.4. In assay [1], the “Binding of serum 37 to linear peptides of protein X1 of SARS-CoV Urbani” value came out at 0.7, the “Binding of serum 37 to looped/cyclic peptide (PEPSCAN-ELISA)” value stood at 0.6, the “Binding of serum 62 to linear peptides of protein X1 of SARS-CoV Urbani” value amounted to 0.8 and the “Binding of serum 62 to looped/cyclic peptide (PEPSCAN-ELISA)” value was determined as 0.7. Besides, in assay [1], the “Binding of serum London to linear peptides of protein X1 of SARS-CoV Urbani” value is 0.3, the “Binding of serum London to looped/cyclic peptide (PEPSCAN-ELISA)” value is reported as 0.2, the “Binding of serum SARS-green to linear peptides of protein X1 of SARS-CoV Urbani” value came to 0.4 and the “Binding of serum SARS-green to looped/cyclic peptide (PEPSCAN-ELISA)” value is recorded as 0.4. For the same sequence, in assay [1], the “Binding of serum SARS-yellow to linear peptides of protein X1 of SARS-CoV Urbani” value stood at 0.4 and the “Binding of serum SARS-yellow to looped/cyclic peptide (PEPSCAN-ELISA)” value is 0.5. Besides, in assay [2], the “Binding of Control Serum Blood-Bank to Looped peptides” value is reported as 0.7, the “Binding of Control serum Blood-bank to linear peptides” value is 0.8, the “Binding of Control serum LUMC to linear peptides” value was 0.7 and the “Binding of Control serum LUMC to looped peptides” value is reported as 0.7. Moreover, in assay [3], the “Binding of a rabbit serum to linear peptides” value is 0.1 and the “Binding of a rabbit serum to looped peptides” value worked out at 0.5.
As for TIVVTEGDGISTPKL, in assay [1], the “Binding of serum 1a to linear peptides of protein X1 of SARS-CoV Urbani” value was 0.6, the “Binding of serum 1a to looped/cyclic peptides of protein X1 of SARS-CoV Urbani” value was determined as 0.7, the “Binding of serum 1b to linear peptides of protein X1 of SARS-CoV Urbani” value amounted to 0.5 and the “Binding of serum 1b to looped/cyclic peptides of protein X1 of SARS-CoV Urbani” value is 0.7. In addition, in assay [1], the “Binding of serum 2 to linear peptides of protein X1 of SARS-CoV Urbani” value amounted to 0.5, the “Binding of serum 2 to looped/cyclic peptides of protein X1 of SARS-CoV Urbani” value is listed as 0.5, the “Binding of serum 6 to linear peptides of protein X1 of SARS-CoV Urbani” value was determined as 0.6 and the “Binding of serum 6 to looped/cyclic peptides of protein X1 of SARS-CoV Urbani” value is given as 0.4. Besides, in assay [1], the “Binding of serum 37 to linear peptides of protein X1 of SARS-CoV Urbani” value is on record as 0.6, the “Binding of serum 37 to looped/cyclic peptides of protein X1 of SARS-CoV Urbani” value is listed as 0.7, the “Binding of serum 62 to linear peptides of protein X1 of SARS-CoV Urbani” value worked out at 0.5 and the “Binding of serum 62 to looped/cyclic peptides of protein X1 of SARS-CoV Urbani” value was found to be 0.6. Besides, in assay [1], the “Binding of serum London to linear peptides of protein X1 of SARS-CoV Urbani” value came to 0.3, the “Binding of serum London to looped/cyclic peptides of protein X1 of SARS-CoV Urbani” value was found to be 0.2, the “Binding of serum SARS-green to linear peptides of protein X1 of SARS-CoV Urbani” value is reported as 0.3 and the “Binding of serum SARS-green to looped/cyclic peptides of protein X1 of SARS-CoV Urbani” value was found to be 0.6. In addition, in assay [1], the “Binding of serum SARS-yellow to linear peptides of protein X1 of SARS-CoV Urbani” value came to 0.3 and the “Binding of serum SARS-yellow to looped/cyclic peptides of protein X1 of SARS-CoV Urbani” value is reported as 0.5. In assay [2], the “Binding of Control Serum Blood-Bank to Looped peptides” value amounted to 0.6, the “Binding of Control serum Blood-bank to linear peptides” value is listed as 0.5, the “Binding of Control serum LUMC to linear peptides” value came to 0.5 and the “Binding of Control serum LUMC to looped peptides” value was found to be 0.7. Besides, in assay [3], the “Binding of a rabbit serum to linear peptides” value turned out to be 0.1 and the “Binding of a rabbit serum to looped peptides” value came out at 0.5.
Regarding TPNVTINCQDPAGGA, in assay [1], the “Binding of serum 1a to linear peptides of protein X5 of SARS-CoV Urbani” value is given as 0.8, the “Binding of serum 1a to looped/cyclic peptides of protein X5 of SARS-CoV Urbani” value is 0.4, the “Binding of serum 1b to linear peptides of protein X5 of SARS-CoV Urbani” value is 0.4 and the “Binding of serum 2 to linear peptides of protein X5 of SARS-CoV Urbani” value was 0.4. Also, in assay [1], the “Binding of serum 2 to looped/cyclic peptides of protein X5 of SARS-CoV Urbani” value was found to be 0.3, the “Binding of serum 6 to linear peptides of protein X5 of SARS-CoV Urbani” value turned out to be 0.1, the “Binding of serum 6 to looped/cyclic peptides of protein X5 of SARS-CoV Urbani” value came to 0.1 and the “Binding of serum 37 to linear peptides of protein X5 of SARS-CoV Urbani” value came to 0.8. Moreover, in assay [1], the “Binding of serum 37 to looped/cyclic peptides of protein X5 of SARS-CoV Urbani” value was found to be 0.4, the “Binding of serum 62 to linear peptides of protein X5 of SARS-CoV Urbani” value stood at 0.5, the “Binding of serum 62 to looped/cyclic peptides of protein X5 of SARS-CoV Urbani” value amounted to 0.2 and the “Binding of serum London to linear peptides of protein X5 of SARS-CoV Urbani” value came to 0.6. Moreover, in assay [1], the “Binding of serum London to looped/cyclic peptides of protein X5 of SARS-CoV Urbani” value is 0.1, the “Binding of serum SARS-green to linear peptides of protein X5 of SARS-CoV Urbani” value is reported as 0.4, the “Binding of serum SARS-green to looped/cyclic peptides of protein X5 of SARS-CoV Urbani” value is listed as 0.2 and the “Binding of serum SARS-yellow to linear peptides of protein X5 of SARS-CoV Urbani” value came out at 0.0. Besides, the “Binding of serum SARS-yellow to looped/cyclic peptides of protein X5 of SARS-CoV Urbani” value in assay [1] is 0.2. For the same sequence, in assay [2], the “Binding of Control Serum Blood-Bank to Looped peptides” value amounted to 0.3, the “Binding of Control serum Blood-bank to linear peptides” value amounted to 0.6, the “Binding of Control serum LUMC to linear peptides” value is recorded as 0.5 and the “Binding of Control serum LUMC to looped peptides” value amounted to 0.2. Further, in assay [3], the “Rabbit serum linear peptides” value came out at 0.0 and the “Rabbit serum looped peptides” value is 0.1.
For the sequence TRGNTYSTAWLCALG, in assay [1], the “Binding of serum 1a to linear peptides of protein X5 of SARS-CoV Urbani” value was determined as 0.8, the “Binding of serum 1a to looped/cyclic peptides of protein X5 of SARS-CoV Urbani” value is 0.4, the “Binding of serum 1b to linear peptides of protein X5 of SARS-CoV Urbani” value is listed as 0.6 and the “Binding of serum 1b to looped/cyclic peptides of protein X5 of SARS-CoV Urbani” value was 0.1. In addition, in assay [1], the “Binding of serum 2 to linear peptides of protein X5 of SARS-CoV Urbani” value was determined as 0.6, the “Binding of serum 2 to looped/cyclic peptides of protein X5 of SARS-CoV Urbani” value is 0.4, the “Binding of serum 6 to linear peptides of protein X5 of SARS-CoV Urbani” value is 0.6 and the “Binding of serum 6 to looped/cyclic peptides of protein X5 of SARS-CoV Urbani” value came out at 0.3. Further, in assay [1], the “Binding of serum 37 to linear peptides of protein X5 of SARS-CoV Urbani” value came to 0.8, the “Binding of serum 37 to looped/cyclic peptides of protein X5 of SARS-CoV Urbani” value amounted to 0.4, the “Binding of serum 62 to linear peptides of protein X5 of SARS-CoV Urbani” value was 0.8 and the “Binding of serum 62 to looped/cyclic peptides of protein X5 of SARS-CoV Urbani” value stood at 0.6. In assay [1], the “Binding of serum London to linear peptides of protein X5 of SARS-CoV Urbani” value was determined as 0.7, the “Binding of serum London to looped/cyclic peptides of protein X5 of SARS-CoV Urbani” value worked out at 0.2, the “Binding of serum SARS-green to linear peptides of protein X5 of SARS-CoV Urbani” value was found to be 0.6 and the “Binding of serum SARS-green to looped/cyclic peptides of protein X5 of SARS-CoV Urbani” value is on record as 0.3. Besides, in assay [1], the “Binding of serum SARS-yellow to linear peptides of protein X5 of SARS-CoV Urbani” value was 0.5 and the “Binding of serum SARS-yellow to looped/cyclic peptides of protein X5 of SARS-CoV Urbani” value was determined as 0.3. Moreover, in assay [2], the “Binding of Control Serum Blood-Bank to Looped peptides” value is recorded as 0.4, the “Binding of Control serum Blood-bank to linear peptides” value was 0.7, the “Binding of Control serum LUMC to linear peptides” value stood at 0.6 and the “Binding of Control serum LUMC to looped peptides” value came out at 0.6. For the same sequence, in assay [3], the “Rabbit serum linear peptides” value was 0.7 and the “Rabbit serum looped peptides” value is recorded as 0.0.
